Measurements taken from the kinase profiling compilation of Christmann-Franck et al. (2016).

How the values were obtained:
ABL2 (human) = ABL2 (human) (UniProt P42684); assay: KINOMEscan competition binding; conditions: compound 1.0 µM
ACVR1B (human) = ACVR1B (human) (UniProt P36896); assay: KINOMEscan competition binding; conditions: compound 1.0 µM
AKT2 (human) = AKT2 (human) (UniProt P31751); assay: KINOMEscan competition binding; conditions: compound 1.0 µM
BMPR1A (human) = BMPR1A (human) (UniProt P36894); assay: KINOMEscan competition binding; conditions: compound 1.0 µM
BRSK2 (human) = BRSK2 (human) (UniProt Q8IWQ3); assay: KINOMEscan competition binding; conditions: compound 1.0 µM
CAMKK1 (human) = CAMKK1 (human) (UniProt Q8N5S9); assay: KINOMEscan competition binding; conditions: compound 1.0 µM
CDC2L2 (human) = CDC2L2 (human) (UniProt Q9UQ88); assay: KINOMEscan competition binding; conditions: compound 1.0 µM
CDK4 CCND3 (human) = CDK4 CCND3 (human) (UniProt P11802+P30281); assay: KINOMEscan competition binding; conditions: compound 1.0 µM
CDK9 (human) = CDK9 (human) (UniProt P50750); assay: KINOMEscan competition binding; conditions: compound 1.0 µM
CIT (human) = CIT (human) (UniProt O14578); assay: KINOMEscan competition binding; conditions: compound 1.0 µM
DDR2 (human) = DDR2 (human) (UniProt Q16832); assay: KINOMEscan competition binding; conditions: compound 1.0 µM
DYRK2 (human) = DYRK2 (human) (UniProt Q92630); assay: KINOMEscan competition binding
EGFR (human) = EGFR (human) (UniProt P00533); assay: KINOMEscan competition binding; conditions: compound 1.0 µM
[1] = tested on: EGFR (human), P00533 [746-750 del]; assay: KINOMEscan competition binding; conditions: compound 1.0 µM
ERBB3 (human) = ERBB3 (human) (UniProt P21860); assay: KINOMEscan competition binding; conditions: compound 1.0 µM
ERBB4 (human) = ERBB4 (human) (UniProt Q15303); assay: KINOMEscan competition binding; conditions: compound 1.0 µM
FLT4 (human) = FLT4 (human) (UniProt P35916); assay: KINOMEscan competition binding; conditions: compound 1.0 µM
GAK (human) = GAK (human) (UniProt O14976); assay: KINOMEscan competition binding; conditions: compound 1.0 µM
HIPK3 (human) = HIPK3 (human) (UniProt Q9H422); assay: KINOMEscan competition binding; conditions: compound 1.0 µM
INSRR (human) = INSRR (human) (UniProt P14616); assay: KINOMEscan competition binding; conditions: compound 1.0 µM
[2] = molecular target: JAK1 JH2 pseudokinase (human) (UniProt P23458); assay: KINOMEscan competition binding; conditions: compound 1.0 µM
[3] = molecular target: JAK3 JH1 catalytic (human) (UniProt P52333); assay: KINOMEscan competition binding; conditions: compound 1.0 µM
MAP2K7 (human) = MAP2K7 (human) (UniProt O14733); assay: KINOMEscan competition binding; conditions: compound 1.0 µM
MAP3K13 (human) = MAP3K13 (human) (UniProt O43283); assay: KINOMEscan competition binding; conditions: compound 1.0 µM
MAP4K1 (human) = MAP4K1 (human) (UniProt Q92918); assay: KINOMEscan competition binding; conditions: compound 1.0 µM
MAPK11 (human) = MAPK11 (human) (UniProt Q15759); assay: KINOMEscan competition binding; conditions: compound 1.0 µM
MAPK15 (human) = MAPK15 (human) (UniProt Q8TD08); assay: KINOMEscan competition binding; conditions: compound 1.0 µM
MYLK2 (human) = MYLK2 (human) (UniProt Q9H1R3); assay: KINOMEscan competition binding; conditions: compound 1.0 µM
[4] = tested on: PIK3CA (human), P42336 [C420R]; assay: KINOMEscan competition binding; conditions: compound 1.0 µM
[5] = tested on: PIK3CA (human), P42336 [M1043I]; assay: KINOMEscan competition binding; conditions: compound 1.0 µM
PIP4K2B (human) = PIP4K2B (human) (UniProt P78356); assay: KINOMEscan competition binding; conditions: compound 1.0 µM
PRKD1 (human) = PRKD1 (human) (UniProt Q15139); assay: KINOMEscan competition binding; conditions: compound 1.0 µM
RIPK4 (human) = RIPK4 (human) (UniProt P57078); assay: KINOMEscan competition binding; conditions: compound 1.0 µM
RPS6KA6 KD2 (human) = RPS6KA6 KD2 (human) (UniProt Q9UK32); assay: KINOMEscan competition binding; conditions: compound 1.0 µM
SGK110 (human) = SGK110 (human) (UniProt P0C264); assay: KINOMEscan competition binding; conditions: compound 1.0 µM
SIK1 (human) = SIK1 (human) (UniProt P57059); assay: KINOMEscan competition binding; conditions: compound 1.0 µM
SIK3 (human) = SIK3 (human) (UniProt Q9Y2K2); assay: KINOMEscan competition binding; conditions: compound 1.0 µM
SNRK (human) = SNRK (human) (UniProt Q9NRH2); assay: KINOMEscan competition binding; conditions: compound 1.0 µM
STK24 (human) = STK24 (human) (UniProt Q9Y6E0); assay: KINOMEscan competition binding; conditions: compound 1.0 µM
STK39 (human) = STK39 (human) (UniProt Q9UEW8); assay: KINOMEscan competition binding; conditions: compound 1.0 µM
VRK2 (human) = VRK2 (human) (UniProt Q86Y07); assay: KINOMEscan competition binding; conditions: compound 1.0 µM
KIT (human) = KIT (human) (UniProt P10721)

DYRK2 (human), sequence (Q92630 whole entry, looked up): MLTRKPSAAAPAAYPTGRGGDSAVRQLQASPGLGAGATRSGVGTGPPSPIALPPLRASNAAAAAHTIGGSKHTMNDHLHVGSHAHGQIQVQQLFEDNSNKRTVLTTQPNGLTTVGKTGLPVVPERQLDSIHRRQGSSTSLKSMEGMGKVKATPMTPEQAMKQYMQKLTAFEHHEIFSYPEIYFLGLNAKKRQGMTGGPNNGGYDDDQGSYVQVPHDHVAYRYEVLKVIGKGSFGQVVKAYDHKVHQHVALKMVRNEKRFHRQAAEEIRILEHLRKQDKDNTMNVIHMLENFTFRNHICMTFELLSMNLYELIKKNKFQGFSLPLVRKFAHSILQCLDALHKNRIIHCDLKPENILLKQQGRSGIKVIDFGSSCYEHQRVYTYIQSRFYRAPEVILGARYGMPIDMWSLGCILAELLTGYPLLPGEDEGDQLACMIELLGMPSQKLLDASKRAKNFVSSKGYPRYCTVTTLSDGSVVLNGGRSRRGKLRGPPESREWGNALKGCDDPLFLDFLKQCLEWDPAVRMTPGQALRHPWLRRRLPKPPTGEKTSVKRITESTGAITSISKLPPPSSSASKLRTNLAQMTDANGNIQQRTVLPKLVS
MAP2K7 (human), sequence (O14733 whole entry, looked up): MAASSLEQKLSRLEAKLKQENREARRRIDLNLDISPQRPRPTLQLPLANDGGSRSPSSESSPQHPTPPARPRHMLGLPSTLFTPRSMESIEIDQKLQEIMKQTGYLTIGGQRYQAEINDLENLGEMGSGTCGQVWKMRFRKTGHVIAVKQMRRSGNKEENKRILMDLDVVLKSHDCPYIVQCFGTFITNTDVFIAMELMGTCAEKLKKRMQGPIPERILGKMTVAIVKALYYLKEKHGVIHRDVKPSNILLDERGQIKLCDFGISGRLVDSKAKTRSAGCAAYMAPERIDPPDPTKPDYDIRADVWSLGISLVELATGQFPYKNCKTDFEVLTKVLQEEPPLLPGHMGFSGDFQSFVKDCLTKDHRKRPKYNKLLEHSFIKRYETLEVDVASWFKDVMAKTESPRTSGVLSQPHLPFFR
EGFR (human), sequence (P00533 whole entry, looked up): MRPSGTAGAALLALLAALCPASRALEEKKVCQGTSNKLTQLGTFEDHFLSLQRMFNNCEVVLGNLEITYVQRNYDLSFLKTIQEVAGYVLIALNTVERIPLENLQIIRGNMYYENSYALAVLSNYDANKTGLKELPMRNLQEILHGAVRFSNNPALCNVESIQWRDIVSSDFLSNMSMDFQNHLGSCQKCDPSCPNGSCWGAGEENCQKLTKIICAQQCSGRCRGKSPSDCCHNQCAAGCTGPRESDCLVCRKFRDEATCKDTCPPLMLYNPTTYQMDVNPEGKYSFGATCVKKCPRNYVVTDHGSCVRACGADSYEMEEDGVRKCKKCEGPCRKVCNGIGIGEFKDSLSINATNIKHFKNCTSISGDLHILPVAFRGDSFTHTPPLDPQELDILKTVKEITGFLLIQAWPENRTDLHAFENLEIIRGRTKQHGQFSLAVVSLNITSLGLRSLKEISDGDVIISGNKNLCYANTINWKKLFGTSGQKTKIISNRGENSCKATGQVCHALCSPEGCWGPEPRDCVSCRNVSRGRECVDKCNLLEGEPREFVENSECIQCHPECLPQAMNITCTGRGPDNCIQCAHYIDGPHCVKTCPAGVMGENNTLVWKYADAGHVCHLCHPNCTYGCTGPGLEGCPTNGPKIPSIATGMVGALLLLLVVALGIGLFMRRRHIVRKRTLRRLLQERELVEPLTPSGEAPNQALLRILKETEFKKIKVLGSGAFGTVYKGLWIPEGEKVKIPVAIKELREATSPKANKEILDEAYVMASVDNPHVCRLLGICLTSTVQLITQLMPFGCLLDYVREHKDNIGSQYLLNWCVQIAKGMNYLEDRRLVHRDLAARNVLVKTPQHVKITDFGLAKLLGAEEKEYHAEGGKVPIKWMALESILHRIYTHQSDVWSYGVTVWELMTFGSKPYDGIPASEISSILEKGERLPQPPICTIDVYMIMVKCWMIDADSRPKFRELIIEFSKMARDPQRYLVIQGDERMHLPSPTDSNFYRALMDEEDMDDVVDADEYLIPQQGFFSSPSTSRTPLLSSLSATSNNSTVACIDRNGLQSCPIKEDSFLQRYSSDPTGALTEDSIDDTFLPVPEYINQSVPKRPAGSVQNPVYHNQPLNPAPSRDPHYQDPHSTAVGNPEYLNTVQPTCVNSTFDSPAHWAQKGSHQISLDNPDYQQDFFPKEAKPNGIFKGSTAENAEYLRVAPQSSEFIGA
EGFR (human), P00533 [746-750 del], sequence (P00533 whole entry, looked up, stated change not applied): as the sequence (P00533 whole entry, looked up) above
ACVR1B (human), sequence (P36896 whole entry, looked up): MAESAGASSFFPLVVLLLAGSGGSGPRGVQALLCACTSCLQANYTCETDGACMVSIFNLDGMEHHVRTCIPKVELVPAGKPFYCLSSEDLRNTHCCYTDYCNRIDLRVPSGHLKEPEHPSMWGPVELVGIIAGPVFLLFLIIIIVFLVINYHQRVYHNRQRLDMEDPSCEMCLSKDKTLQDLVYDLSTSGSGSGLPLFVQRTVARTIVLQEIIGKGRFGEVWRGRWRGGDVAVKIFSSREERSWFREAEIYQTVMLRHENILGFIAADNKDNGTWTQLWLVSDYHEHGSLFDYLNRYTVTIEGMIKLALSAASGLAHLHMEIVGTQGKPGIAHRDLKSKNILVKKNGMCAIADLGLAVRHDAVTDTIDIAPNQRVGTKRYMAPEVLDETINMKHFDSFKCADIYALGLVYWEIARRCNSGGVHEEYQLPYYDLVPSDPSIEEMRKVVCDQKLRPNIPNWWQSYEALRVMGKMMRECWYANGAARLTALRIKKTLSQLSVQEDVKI
MYLK2 (human), sequence (Q9H1R3 whole entry, looked up): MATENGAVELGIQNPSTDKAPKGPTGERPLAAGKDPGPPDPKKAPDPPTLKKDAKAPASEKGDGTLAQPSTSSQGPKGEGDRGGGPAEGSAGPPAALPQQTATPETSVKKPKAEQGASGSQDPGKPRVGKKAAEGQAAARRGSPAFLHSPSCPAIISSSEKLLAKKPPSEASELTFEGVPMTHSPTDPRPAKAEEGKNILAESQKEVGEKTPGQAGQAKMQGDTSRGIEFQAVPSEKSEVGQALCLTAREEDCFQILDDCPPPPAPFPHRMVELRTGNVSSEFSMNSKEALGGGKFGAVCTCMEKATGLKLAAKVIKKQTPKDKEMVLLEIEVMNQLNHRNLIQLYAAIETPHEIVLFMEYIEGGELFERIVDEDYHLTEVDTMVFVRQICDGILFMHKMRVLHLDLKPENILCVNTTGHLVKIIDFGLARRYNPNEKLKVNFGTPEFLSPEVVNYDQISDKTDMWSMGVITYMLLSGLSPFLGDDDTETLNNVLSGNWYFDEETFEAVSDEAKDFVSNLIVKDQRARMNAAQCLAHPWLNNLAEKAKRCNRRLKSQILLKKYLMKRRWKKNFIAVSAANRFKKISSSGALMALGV
STK24 (human), sequence (Q9Y6E0 whole entry, looked up): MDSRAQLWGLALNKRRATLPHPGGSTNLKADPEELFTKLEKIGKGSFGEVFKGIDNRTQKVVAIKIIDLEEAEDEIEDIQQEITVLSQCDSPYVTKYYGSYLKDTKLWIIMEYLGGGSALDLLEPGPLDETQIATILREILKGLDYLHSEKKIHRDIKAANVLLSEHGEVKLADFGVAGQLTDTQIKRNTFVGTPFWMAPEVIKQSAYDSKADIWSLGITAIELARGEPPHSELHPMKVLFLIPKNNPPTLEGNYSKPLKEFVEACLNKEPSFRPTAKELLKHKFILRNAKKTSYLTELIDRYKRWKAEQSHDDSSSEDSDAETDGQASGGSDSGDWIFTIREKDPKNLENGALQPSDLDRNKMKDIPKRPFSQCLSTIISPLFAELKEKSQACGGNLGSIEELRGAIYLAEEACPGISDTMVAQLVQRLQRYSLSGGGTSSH

`CN(C)C/C=C/C(=O)Nc1cccc(C(=O)Nc2ccc(Nc3nccc(-c4cccnc4)n3)cc2)c1` gave a kinase still bound, per cent of control (ABL2 (human)) of 79%, a kinase still bound, per cent of control (ACVR1B (human)) of 86% and a kinase still bound, per cent of control (AKT2 (human)) of 96%. For the same compound, the kinase still bound, per cent of control (BMPR1A (human)) was 46%, the kinase still bound, per cent of control (BRSK2 (human)) was 98% and the kinase still bound, per cent of control (CAMKK1 (human)) was 64%. It also gave a kinase still bound, per cent of control (CDC2L2 (human)) of 74%, a kinase still bound, per cent of control (CDK4 CCND3 (human)) of 61% and a kinase still bound, per cent of control (CDK9 (human)) of 55%. It also gave a kinase still bound, per cent of control (CIT (human)) of 28%, a kinase still bound, per cent of control (DDR2 (human)) of 53% and a Kd (DYRK2 (human)) of 120 nM. For the same compound, the kinase still bound, per cent of control (DYRK2 (human); compound 1.0 µM) was 3.2%, the kinase still bound, per cent of control (EGFR (human)) was 95% and the kinase still bound, per cent of control [1] was 88%. It also gave a kinase still bound, per cent of control (ERBB3 (human)) of 100%, a kinase still bound, per cent of control (ERBB4 (human)) of 100% and a kinase still bound, per cent of control (FLT4 (human)) of 95%. For the same compound, the kinase still bound, per cent of control (GAK (human)) was 33%, the kinase still bound, per cent of control (HIPK3 (human)) was 5.7% and the kinase still bound, per cent of control (INSRR (human)) was 100%. For the same compound, the kinase still bound, per cent of control [2] was 8.6%, the kinase still bound, per cent of control [3] was 27% and the kinase still bound, per cent of control (MAP2K7 (human)) was 100%. The kinase still bound, per cent of control (MAP3K13 (human)) was 100%, the kinase still bound, per cent of control (MAP4K1 (human)) was 79% and the kinase still bound, per cent of control (MAPK11 (human)) was 95%. It also gave a kinase still bound, per cent of control (MAPK15 (human)) of 7.1%, a kinase still bound, per cent of control (MYLK2 (human)) of 35% and a kinase still bound, per cent of control [4] of 100%. It also gave a kinase still bound, per cent of control [5] of 74%, a kinase still bound, per cent of control (PIP4K2B (human)) of 18% and a kinase still bound, per cent of control (PRKD1 (human)) of 100%. It also gave a kinase still bound, per cent of control (RIPK4 (human)) of 31%, a kinase still bound, per cent of control (RPS6KA6 KD2 (human)) of 100% and a kinase still bound, per cent of control (SGK110 (human)) of 100%. For the same compound, the kinase still bound, per cent of control (SIK1 (human)) was 87%, the kinase still bound, per cent of control (SIK3 (human)) was 100% and the kinase still bound, per cent of control (SNRK (human)) was 90%. It also gave a kinase still bound, per cent of control (STK24 (human)) of 86%, a kinase still bound, per cent of control (STK39 (human)) of 95% and a kinase still bound, per cent of control (VRK2 (human)) of 98%. The IC50 (KIT (human)) was 2410 nM.
